pIC50: −log10 of the molar value.
Assays:
[1] = biological target: T1, human LDH-A (hLDH-A) (Homo sapiens, UniProt P00338); experiment: recombinant enzyme assay, NADH oxidation at […] nm; velocity at varied NADH ±[…] PGG; type: biochemical
T1 construct: gene LDHA; recombinant full length human LDHA (amino acids 1–332) with N terminal His tag

[2] = biological target: T1, human LDH-A (hLDH-A); experiment: recombinant enzyme assay, NADH oxidation at […] nm; type: biochemical

SMILES: O=C(OC[C@H]1O[C@@H](OC(=O)c2cc(O)c(O)c(O)c2)[C@H](OC(=O)c2cc(O)c(O)c(O)c2)[C@@H](OC(=O)c2cc(O)c(O)c(O)c2)[C@@H]1OC(=O)c1cc(O)c(O)c(O)c1)c1cc(O)c(O)c(O)c1 [PGG, penta-1,2,3,4,6-O-galloyl-β-D-glucose]
- pIC50 [1]: 7.57

SMILES: O=C(O)C(=O)O [oxalic acid]
- pIC50 [2]: < 2.22

From PMC4396556, “1,2,3,4,6-Penta-O-galloylglucose within Galla Chinensis Inhibits Human LDH-A and Attenuates Cell Proliferation in MDA-MB-231 Breast Cancer Cells” (Evidence-based Complementary and Alternative Medicine : eCAM, 2015)
